The values that follow come from patent publication US12679878B2, “CRF2 receptor agonists and their use in therapy” (SANOFI, priority 2020, dated 2026).

Structures are written as SMILES. Starred links: 1 amine or outer side, 2 acyl side, 3 side chain; linkers in the order of their positions; H or OH if unused. Non-standard residues stand in square brackets, D forms with d. Residues, ends and D or L forms follow the SMILES beside them. Groups on a side chain read outwards from the residue. *: point of attachment. C18 diacid = O=C(O)CCCCCCCCCCCCCCCCC(=O)*; γGlu = O=C(O)[C@H](CCC(=O)[*:2])N[*:1]; AEEA = NCCOCCOCC(=O)O; Aib = CC(C)(N)C(=O)O

The target of the assay is T1, human CRF2α receptor (Homo sapiens, UniProt Q13324).
T1 construct: expressed in transfected cells; host or cells: TeloHEAC
T1 sequence (Q13324 1-411): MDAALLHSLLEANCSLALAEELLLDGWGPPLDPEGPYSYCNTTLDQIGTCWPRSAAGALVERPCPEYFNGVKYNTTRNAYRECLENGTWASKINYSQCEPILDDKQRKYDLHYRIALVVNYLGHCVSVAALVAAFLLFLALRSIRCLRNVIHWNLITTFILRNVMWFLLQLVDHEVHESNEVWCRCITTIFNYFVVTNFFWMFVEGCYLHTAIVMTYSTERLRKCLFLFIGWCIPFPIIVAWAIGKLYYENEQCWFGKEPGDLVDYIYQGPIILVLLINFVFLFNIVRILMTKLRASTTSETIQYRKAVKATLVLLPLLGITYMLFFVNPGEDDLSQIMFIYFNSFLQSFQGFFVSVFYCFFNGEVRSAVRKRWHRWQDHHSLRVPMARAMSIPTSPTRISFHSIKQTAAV
As to the kind of experiment: cAMP agonism at human CRF2 α receptor in TeloHEAC cells (Example 7). It counts as cell-based. The following applies: cAMP HTRF, TeloHEAC cells stably expressing human CRF2 α, 0% HSA; read-out: EC50 [nM], 0% HSA. The method, then:
Agonism of compounds for human corticotropin-releasing factor 2α (CRF2 α receptor) was determined by functional assays measuring CAMP response of a TeloHEAC cell line stably expressing human CRF2 α receptor.
Cells were grown in a T175 culture flask placed at 37° C. to near confluence in medium (DMEM/10% FBS) and collected in 2 ml vials in cell culture medium containing 10% DMSO in a concentration of 10-50 million cells/ml. Each vial contained 1.8 ml cells. The vials were slowly frozen to −80° C. in isopropanol and then transferred in liquid nitrogen for storage. Prior to use, frozen cells were thawed quickly at 37° C. and washed (5 min at 900 rpm) with 20 ml cell buffer (1×HBSS; 20 mM HEPES; 0% or 0.1% HSA). Cells were resuspended in assay buffer (cell buffer plus 2 mM IBMX) and adjusted to a cell density of 1 million cells/ml. For measurement, 5 μl cells (final […]) and 5 μL of test compound were added to a 384-well plate, followed by incubation for 30 minutes at room temperature.
The CAMP content of cells was determined using a kit from Cisbio Corp. (cat. no. 62AM4PEC) based on HTRF (Homogenous Time Resolved Fluorescence). After addition of HTRF reagents diluted in lysis buffer (kit components), the plates were incubated for 1 h, followed by measurement of the fluorescence ratio at 665/620 nm. The percent activity value (E %) was calculated by setting 1000 nM of urocortin 2 (UCN2) as 100%. The in vitro potency of the compounds was quantified by determining the concentrations that caused 50% activation of maximal response (EC50).
(TR-FRET usually uses a lanthanide donor and a delayed reading to cut background.)

The EC50 is the midpoint of the concentration-response curve. With `CC[C@H](C)[C@H](N)C(=O)N[C@H](C(=O)N[C@@H](CC(C)C)C(=O)N[C@@H](CO)C(=O)N[C@@H](CC(C)C)C(=O)N[C@@H](CC(=O)O)C(=O)N[C@H](C(=O)N1CCC[C@H]1C(=O)N[C@H](C(=O)N[C@@H](CCCCN)C(=O)N[C@@H](CC(C)C)C(=O)N[C@@H](CCCCNC(=O)COCCOCCNC(=O)COCCOCCNC(=O)CC[C@H](NC(=O)CCCCCCCCCCCCCCCCC(=O)O)C(=O)O)C(=O)N[C@@H](CCC(N)=O)C(=O)N[C@H](C(=O)N[C@@H](CC(C)C)C(=O)N[C@@H](CC(C)C)C(=O)N[C@@H](CCC(=O)O)C(=O)N[C@@H](CCC(N)=O)C(=O)N[C@@H](CCC(=O)O)C(=O)N[C@@H](CCCNC(=N)N)C(=O)N[C@@H](CCC(N)=O)C(=O)N[C@@H](CCCNC(=N)N)C(=O)NC(C)(C)C(=O)N[C@@H](CCC(=O)O)C(=O)N[C@@H](CCCNC(=N)N)C(=O)N[C@@H](CCC(N)=O)C(=O)N[C@@H](CCC(N)=O)C(=O)N[C@@H](C)C(=O)N[C@@H](CCC(=O)O)C(=O)N[C@H](C(=O)N[C@@H](CC(N)=O)C(=O)N[C@H](C(=O)N[C@@H](CCC(N)=O)C(=O)N[C@H](C(=O)N[C@@H](CC(C)C)C(=O)N[C@@H](C)C(=O)N[C@@H](CCC(N)=O)C(=O)N[C@H](C(N)=O)C(C)C)[C@@H](C)CC)C(C)C)[C@@H](C)O)[C@@H](C)CC)[C@@H](C)CC)C(C)C)C(C)C` [compound 48] (H-IVLSLDVPIKLK([AEEA-AEEA-γGlu-C18 diacid])QILLEQERQR[Aib]ERQQAETNVQILAQV-NH2; N-terminus assumed), the EC50 was found to be 2.2 nM.

With `CC[C@H](C)[C@H](N)C(=O)N[C@H](C(=O)N[C@@H](CC(C)C)C(=O)N[C@@H](CO)C(=O)N[C@@H](CC(C)C)C(=O)N[C@@H](CC(=O)O)C(=O)N[C@H](C(=O)N1CCC[C@H]1C(=O)N[C@H](C(=O)N[C@@H](CCCCN)C(=O)N[C@@H](CC(C)C)C(=O)N[C@@H](CCCCNC(=O)COCCOCCNC(=O)COCCOCCNC(=O)CC[C@H](NC(=O)CCCCCCCCCCCCCCCCC(=O)O)C(=O)O)C(=O)N[C@@H](CCC(N)=O)C(=O)N[C@H](C(=O)N[C@@H](CC(C)C)C(=O)N[C@@H](CC(C)C)C(=O)N[C@@H](CCC(=O)O)C(=O)N[C@@H](CCC(N)=O)C(=O)N[C@@H](CCC(=O)O)C(=O)N[C@@H](CCCNC(=N)N)C(=O)N[C@@H](CCC(N)=O)C(=O)N[C@@H](CCCNC(=N)N)C(=O)NC(C)(C)C(=O)N[C@@H](CCC(=O)O)C(=O)N[C@@H](CCCNC(=N)N)C(=O)N[C@@H](CCC(N)=O)C(=O)N[C@@H](CCC(N)=O)C(=O)N[C@@H](C)C(=O)N[C@@H](CCC(=O)O)C(=O)N[C@H](C(=O)N[C@@H](CC(N)=O)C(=O)N[C@H](C(=O)N[C@@H](CCCNC(=N)N)C(=O)N[C@H](C(=O)N[C@@H](CC(C)C)C(=O)N[C@@H](CCC(=O)O)C(=O)N[C@@H](CCCNC(=N)N)C(=O)N[C@H](C(N)=O)C(C)C)[C@@H](C)CC)C(C)C)[C@@H](C)O)[C@@H](C)CC)[C@@H](C)CC)C(C)C)C(C)C` [compound 49] (H-IVLSLDVPIKLK([AEEA-AEEA-γGlu-C18 diacid])QILLEQERQR[Aib]ERQQAETNVRILERV-NH2; N-terminus assumed), the 50% effective concentration (EC50) came out at 12.7 nM.

Consider `CC[C@H](C)[C@H](N)C(=O)N[C@H](C(=O)N[C@@H](CC(C)C)C(=O)N[C@@H](CO)C(=O)N[C@@H](CC(C)C)C(=O)N[C@@H](CC(=O)O)C(=O)N[C@H](C(=O)N1CCC[C@H]1C(=O)N[C@H](C(=O)N[C@@H](CCCCN)C(=O)N[C@@H](CC(C)C)C(=O)N[C@@H](CCCCNC(=O)COCCOCCNC(=O)COCCOCCNC(=O)CC[C@H](NC(=O)CCCCCCCCCCCCCCCCC(=O)O)C(=O)O)C(=O)N[C@@H](CCC(N)=O)C(=O)N[C@H](C(=O)N[C@@H](CC(C)C)C(=O)N[C@@H](CC(C)C)C(=O)N[C@@H](CCCCN)C(=O)N[C@@H](CCC(N)=O)C(=O)N[C@@H](CCC(=O)O)C(=O)N[C@@H](CCCNC(=N)N)C(=O)N[C@@H](CCC(N)=O)C(=O)N[C@@H](CCCNC(=N)N)C(=O)NC(C)(C)C(=O)N[C@@H](CCC(=O)O)C(=O)N[C@@H](CCCNC(=N)N)C(=O)N[C@@H](CCC(N)=O)C(=O)N[C@@H](CCC(N)=O)C(=O)N[C@@H](C)C(=O)N[C@@H](CCC(=O)O)C(=O)N[C@H](C(=O)N[C@@H](CC(N)=O)C(=O)N[C@H](C(=O)N[C@@H](CCCNC(=N)N)C(=O)N[C@H](C(=O)N[C@@H](CC(C)C)C(=O)N[C@@H](CCC(=O)O)C(=O)N[C@@H](CCCNC(=N)N)C(=O)N[C@H](C(N)=O)C(C)C)[C@@H](C)CC)C(C)C)[C@@H](C)O)[C@@H](C)CC)[C@@H](C)O)C(C)C)C(C)C` [compound 50] (H-IVLSLDVPTKLK([AEEA-AEEA-γGlu-C18 diacid])QILLKQERQR[Aib]ERQQAETNVRILERV-NH2; N-terminus assumed), for which the EC50 was 17.2 nM.

As for `CC[C@H](C)[C@H](NC(=O)[C@H](CCC(N)=O)NC(=O)[C@H](CCCCNC(=O)COCCOCCNC(=O)COCCOCCNC(=O)CC[C@H](NC(=O)CCCCCCCCCCCCCCCCC(=O)O)C(=O)O)NC(=O)[C@@H](NC(=O)[C@H](CCCCN)NC(=O)[C@@H](NC(=O)[C@@H]1CCCN1C(=O)[C@@H](NC(=O)[C@H](CC(=O)O)NC(=O)[C@H](CC(C)C)NC(=O)[C@H](CO)NC(=O)[C@H](CC(C)C)NC(=O)[C@@H](NC(=O)[C@@H](N)Cc1ccccc1)[C@@H](C)O)C(C)C)[C@@H](C)O)[C@@H](C)CC)C(=O)N[C@@H](CC(C)C)C(=O)N[C@@H](CC(C)C)C(=O)N[C@@H](CCCCN)C(=O)N[C@@H](CCC(N)=O)C(=O)N[C@@H](CCC(N)=O)C(=O)N[C@@H](CCCCN)C(=O)N[C@@H](CCC(N)=O)C(=O)N[C@@H](CCCCN)C(=O)N[C@@H](CCCCN)C(=O)N[C@@H](CCC(=O)O)C(=O)N[C@@H](CCCNC(=N)N)C(=O)N[C@@H](CCC(N)=O)C(=O)N[C@@H](CCCCN)C(=O)N[C@@H](C)C(=O)N[C@@H](CCC(=O)O)C(=O)N[C@H](C(=O)N[C@@H](CC(N)=O)C(=O)N[C@H](C(=O)N[C@@H](CCC(N)=O)C(=O)N[C@@H](CC(C)C)C(=O)N[C@@H](CC(C)C)C(=O)N[C@@H](CCC(=O)O)C(=O)N[C@@H](CCCNC(=N)N)C(=O)N[C@H](C(N)=O)C(C)C)C(C)C)[C@@H](C)O` [compound 55] (H-FTLSLDVPTKIK([AEEA-AEEA-γGlu-C18 diacid])QILLKQQKQKKERQKAETNVQLLERV-NH2; N-terminus assumed), the EC50 worked out at 48.5 nM.

With `CC[C@H](C)[C@H](NC(=O)[C@H](CCC(N)=O)NC(=O)[C@H](CCCCNC(=O)COCCOCCNC(=O)COCCOCCNC(=O)CC[C@H](NC(=O)CCCCCCCCCCCCCCCCC(=O)O)C(=O)O)NC(=O)[C@H](CC(C)C)NC(=O)CNC(=O)[C@@H](NC(=O)[C@@H]1CCCN1C(=O)[C@@H](NC(=O)[C@H](CC(=O)O)NC(=O)[C@H](CC(C)C)NC(=O)[C@H](CO)NC(=O)[C@H](CC(C)C)NC(=O)[C@@H](NC(=O)[C@@H](N)Cc1ccccc1)[C@@H](C)O)C(C)C)[C@@H](C)CC)C(=O)N[C@@H](CC(C)C)C(=O)N[C@@H](CC(C)C)C(=O)N[C@@H](CCCCN)C(=O)N[C@@H](CCC(N)=O)C(=O)N[C@@H](CCC(N)=O)C(=O)N[C@@H](CCCCN)C(=O)N[C@@H](CCC(N)=O)C(=O)N[C@@H](CCCCN)C(=O)N[C@@H](CCCCN)C(=O)N[C@@H](CCC(=O)O)C(=O)N[C@@H](CCCNC(=N)N)C(=O)N[C@@H](CCC(N)=O)C(=O)N[C@@H](CCC(N)=O)C(=O)N[C@@H](C)C(=O)N[C@@H](CCC(=O)O)C(=O)N[C@H](C(=O)N[C@@H](CC(N)=O)C(=O)N[C@H](C(=O)N[C@@H](CCC(N)=O)C(=O)N[C@@H](CC(C)C)C(=O)N[C@@H](CC(C)C)C(=O)N[C@@H](CCC(=O)O)C(=O)N[C@@H](CCCNC(=N)N)C(=O)N[C@H](C(N)=O)C(C)C)C(C)C)[C@@H](C)O` [compound 56] (H-FTLSLDVPIGLK([AEEA-AEEA-γGlu-C18 diacid])QILLKQQKQKKERQQAETNVQLLERV-NH2), the EC50 was 22.9 nM.
